Assay results as given in ChEMBL document CHEMBL3045842, “Antioxidant and -glucosidase inhibitory compounds from Pimpinella candolleana Wight et Arn” (Med Chem Res, 2012).
Values after ≈ are worked out from the molar mass of the structure shown.

How the values were obtained:
[1] = molecular target: Lysosomal alpha-glucosidase (Homo sapiens) (UniProt P10253); assay: Inhibition of alpha-glucosidase (unknown origin) using para-nitrophenyl-alpha-D-glucopyranoside as substrate incubated at 50 to 300 ug/ml for 15 min prior to substrate addition measured after 15 min by spectrophotometric analysis
[2] = Antioxidant activity assessed as trolox equivalents of ferric reducing activity after 30 min by spectrophotometry; format: functional
[3] = tested on: Radical scavenging activity; assay: Antioxidant activity assessed as as DPPH radical scavenging activity after 30 min by spectrophotometry; format: functional
[4] = Antioxidant activity assessed as ABTS radical scavenging activity after 10 min by spectrophotometry; format: functional

Row | SMILES | inhibition [1] [%] | Activity [2] [µmol/g] | IC50 [3] [µg/mL] | IC50 [4] [µg/mL]
1 | CC[C@H](/C=C/[C@@H](C)[C@H]1CC[C@H]2[C@@H]3CC=C4CC(OC(C)=O)CC[C@]4(C)[C@H]3CC[C@]12C)C(C)C (stereo not given in full) | 99.1 | – | – | –
2 | C[C@H]1O[C@H](O[C@H]2[C@H](O)[C@@H](O)[C@@H](O[C@H]3[C@H](O)[C@@H](O)C(O)O[C@@H]3CO)O[C@@H]2CO)[C@H](O)[C@@H](O)[C@@H]1N[C@H]1C=C(CO)[C@@H](O)[C@H](O)[C@H]1O (stereo not given in full) | 55.6 | – | – | –
3 | C[C@H]1[C@H](C)CC[C@]2(C(=O)O)CC[C@]3(C)C(=CC[C@@H]4[C@@]5(C)CC[C@H](O)C(C)(C)[C@@H]5CC[C@]43C)[C@H]12 | 97.6 | – | – | –
4 | O=c1cc(-c2ccc(O)cc2)oc2cc(O)c([C@@H]3O[C@H](CO)[C@@H](O)[C@H](O)[C@H]3O)c(O)c12 | 76.8 | – | – | –
5 | Cc1cc(C(C)(C)C)c(O)c(C(C)(C)C)c1 [BUTYLATED HYDROXYTOLUENE] | – | 1580 | 18.71 (≈ 84.9 µM) | 6.64 (≈ 30.1 µM)
6 | O=c1cc(-c2ccc(O)c(O)c2)oc2cc(O)cc(O)c12 [LUTEOLIN] | 99.9 | – | 0.99 (≈ 3.46 µM) | –
7 | CCCOC(=O)c1cc(O)c(O)c(O)c1 [PROPYL GALLATE] | – | – | 3.96 (≈ 18.7 µM) | –
